The source made the active and inactive calls. The calls are words filed in the database; no cut-off is given here.
Legend:
K562 [1] = assay: Induction of reactive oxygen species in human K562 cells after 48 hrs by flow cytometry analysis; format: functional, cell-based
MCF7 = assay: Antiproliferative activity against human MCF7 cells after 48 hrs by MTT assay; format: functional, cell-based; conditions: MCF7, 48 h
K562 [2] = assay: Induction of apoptosis in human K562 cells assessed as late apoptotic cells at 25 uM after 48 hrs by annexin-V-FITC/PI staining based flow cytometry; format: functional, cell-based
HT-29 [3] = assay: Antiproliferative activity against human HT-29 cells after 96 hrs by MTT assay; format: functional, cell-based; conditions: HT-29, 96 h
HT-29 [4] = assay: Antiproliferative activity against human HT-29 cells after 72 hrs by MTT assay; format: functional, cell-based; conditions: HT-29, 72 h
Jurkat [5] = assay: Induction of reactive oxygen species in human Jurkat cells after 48 hrs by flow cytometry analysis; format: functional, cell-based
Jurkat [6] = assay: Induction of apoptosis in human Jurkat cells assessed as early apoptotic cells at 25 uM after 48 hrs by annexin-V-FITC/PI staining based flow cytometry; format: functional, cell-based
K562 [7] = assay: Induction of apoptosis in human K562 cells assessed as early apoptotic cells at 25 uM after 48 hrs by annexin-V-FITC/PI staining based flow cytometry; format: functional, cell-based
HEK293 [8] = assay: Antiproliferative activity against human HEK293 cells incubated with 2000 cells per well after 48 hrs by MTT assay; format: cell-based; conditions: HEK293, 48 h
Jurkat [9] = assay: Induction of apoptosis in human Jurkat cells assessed as late apoptotic cells at 25 uM after 48 hrs by annexin-V-FITC/PI staining based flow cytometry; format: functional, cell-based
Mus musculus = species on record: Mus musculus; assay: Induction of apoptosis in C57BL/6 mouse liver mitochondrial assessed as cytochrome c release after 1 hr by immunoblotting method; format: functional; conditions: Mitochondria
K562 [10] = assay: Induction of reactive oxygen species in human K562 cells at >= 50 uM after 48 hrs by flow cytometry analysis; format: functional, cell-based
K562 [11] = assay: Induction of apoptosis in human K562 cells after 48 hrs at 50 uM by annexin-V-FITC/PI staining based flow cytometry; format: functional, cell-based
Jurkat [12] = assay: Induction of reactive oxygen species in human Jurkat cells at >= 50 uM after 48 hrs by flow cytometry analysis; format: functional, cell-based
Jurkat [13] = assay: Induction of apoptosis in human Jurkat cells assessed as increase in cleaved PARP-1 level at 50 and 100 uM after 48 hrs by immunoblotting; format: functional, cell-based
HepG2 = assay: Antiproliferative activity against human HepG2 cells after 48 hrs by MTT assay; format: functional, cell-based; conditions: HepG2, 48 h
Jurkat [14] = assay: Induction of apoptosis in human Jurkat cells after 48 hrs at 50 uM by annexin-V-FITC/PI staining based flow cytometry; format: functional, cell-based
Jurkat [15] = assay: Induction of apoptosis in human Jurkat cells assessed as increase in cleaved PARP-1 level at 20 uM after 48 hrs by immunoblotting; format: functional, cell-based
K562 [16] = assay: Induction of apoptosis in human K562 cells assessed as early apoptotic cells at 10 uM after 48 hrs by annexin-V-FITC/PI staining based flow cytometry; format: functional, cell-based
HEK293 [17] = assay: Antiproliferative activity against human HEK293 cells incubated with 3000 cells per well after 48 hrs by MTT assay; format: cell-based; conditions: HEK293, 48 h
Jurkat [18] = assay: Induction of apoptosis in human Jurkat cells assessed as early apoptotic cells at 10 uM after 48 hrs by annexin-V-FITC/PI staining based flow cytometry; format: functional, cell-based

EC50 (MCF7) [µM]	EC50 (HT-29 [3]) [µM]	EC50 (HT-29 [4]) [µM]	SMILES	Activity (K562 [1])	Activity (Jurkat [5])	EC50 (HEK293 [8]) [µM]	Activity (Mus musculus)	further results
31.2	33.8	26.2	Clc1ccc2[nH]c3snnc3c2c1	Dose-dependent effect	Dose-dependent effect	24.4	–	Activity (K562 [2]): Active; Activity (Jurkat [6]): Active; Activity (K562 [7]): Active; Activity (Jurkat [9]): Active
–	52.3	49.4	O=C(c1ccc(Cl)cc1)n1c2ccccc2c2nnsc21	–	–	–	inactive	Activity (K562 [10]): Active; Activity (K562 [11]): Active; Activity (Jurkat [12]): Active; Activity (Jurkat [13]): Active; EC50 (HepG2): 60.2 µM; Activity (Jurkat [14]): Active
12.9	6.97	7.97	COc1ccc(S(=O)(=O)n2c3ccccc3c3nnsc32)cc1	Dose-dependent effect	Dose-dependent effect	15.3	inactive	Activity (Jurkat [15]): Active; Activity (K562 [16]): Active; EC50 (HEK293 [17]): 12.3 µM; Activity (Jurkat [18]): Active

Reference: ChEMBL document CHEMBL3751788, “The new facile and straightforward method for the synthesis of 4H-1,2,3-thiadiazolo[5,4-b]indoles and determination of their antiproliferative activity” (Eur J Med Chem, 2016)
